# Tests used:
# [1] = system: HIV-1 Env pseudovirus TRO, clone 11; test: Single-cycle assay TZM-bl, Env pseudovirus panel; settings: TZM-bl
# Cytotoxicity [2] = assay type: cell-based, human; settings: human, freshly isolated and stimulated uninfected PBMC
# Cytotoxicity [3] = assay type: cell-based; settings: human, U87-CD4-CCR5 cells
# [4] = system: HIV-1 Env pseudovirus QH0692, clone 42; test: Single-cycle assay TZM-bl, Env pseudovirus panel; settings: TZM-bl
# [5] = system: HIV-1 Env pseudovirus CRF02_AG, clone 253; test: Single-cycle assay TZM-bl, Env pseudovirus panel
# [6] = system: control pseudovirus VSV-G; test: microbe, parasite or virus in culture; assay type: cell-based; settings: Pseudovirus, U87/CD4/CCR5
# [7] = system: HIV-1 Env pseudovirus BG505-T332N; test: Single-cycle assay TZM-bl, Env pseudovirus panel; settings: TZM-bl
# [8] = system: HIV-1 Env pseudovirus MK184.W0M.ENV.E4; test: Single-cycle assay, Paired Infant and Maternal Env clones
# [9] = system: HIV-1 Env pseudovirus ML274.W0M.ENV.B1; test: as above
# [10] = system: HIV-1 Env pseudovirus MI206.W0M.ENV.D1; test: as above
# [11] = system: HIV-1 Env pseudovirus QD435.100M.ENV.B5; test: Single-cycle assay TZM-bl, Env pseudovirus panel; settings: TZM-bl
# [12] = system: HIV-1 Env pseudovirus BL274.W6M.ENV.A3; test: Single-cycle assay, Paired Infant and Maternal Env clones
# [13] = system: HIV-1 Env pseudovirus QD435.100M.ENV.E1; test: Single-cycle assay TZM-bl, Env pseudovirus panel
# [14] = system: HIV-1 Env pseudovirus CRF02_AG, clone 257; test: Single-cycle assay TZM-bl, Env pseudovirus panel; settings: TZM-bl
# [15] = system: HIV-1 Env pseudovirus REJO4541, clone 67; test: Single-cycle assay TZM-bl, Env pseudovirus panel
# [16] = system: HIV-1 Env pseudovirus QA790.204I.ENV.C8; test: Single-cycle assay TZM-bl, Env pseudovirus panel; settings: TZM-bl
# [17] = system: HIV-1 Env pseudovirus WEAUd15.410.5017; test: Single-cycle assay TZM-bl, Env pseudovirus panel; settings: TZM-bl
# [18] = system: HIV-1 Env pseudovirus B41; test: Single-cycle assay TZM-bl, Env pseudovirus panel; settings: TZM-bl
# [19] = system: HIV-1 Env pseudovirus THRO4156, clone 18; test: Single-cycle assay TZM-bl, Env pseudovirus panel
# [20] = system: HIV-1 Env pseudovirus B1206.W6P.ENV.A1A; test: Single-cycle assay, Paired Infant and Maternal Env clones
# [21] = system: HIV-1 Env pseudovirus QB099.391M.ENV.C8; test: Single-cycle assay TZM-bl, Env pseudovirus panel; settings: TZM-bl
# [22] = system: HIV-1 Env pseudovirus QF495.23M.ENV.A3; test: Single-cycle assay TZM-bl, Env pseudovirus panel; settings: TZM-bl
# [23] = system: HIV-1 Env pseudovirus BG505.W6M.ENV.C2; test: Single-cycle assay, Paired Infant and Maternal Env clones
# [24] = system: HIV-1 Env pseudovirus HIV-25711-2, clone 4; test: Single-cycle assay TZM-bl, Env pseudovirus panel; settings: TZM-bl
# [25] = system: HIV-1 Env pseudovirus 1054.TC4.1499; test: Single-cycle assay TZM-bl, Env pseudovirus panel; settings: TZM-bl
# [26] = system: HIV-1 Env pseudovirus BK184.W6M.ENV.D2; test: Single-cycle assay, Paired Infant and Maternal Env clones
# [27] = system: HIV-1 Env pseudovirus QG393.60M.ENV.B7; test: Single-cycle assay TZM-bl, Env pseudovirus panel; settings: TZM-bl
# [28] = system: HIV-1 Env pseudovirus ZM109F.PB4; test: Single-cycle assay TZM-bl, Env pseudovirus panel; settings: TZM-bl
# [29] = system: HIV-1 Env pseudovirus 9021_14.B2.4571; test: Single-cycle assay TZM-bl, Env pseudovirus panel; settings: TZM-bl
# [30] = system: HIV-1 Env pseudovirus HIV-25925-2, clone 22; test: Single-cycle assay TZM-bl, Env pseudovirus panel
# [31] = system: HIV-1 Env pseudovirus HIV-16936-2, clone 21; test: Single-cycle assay TZM-bl, Env pseudovirus panel; settings: TZM-bl
# [32] = system: HIV-1 Env pseudovirus Du422, clone 1; test: Single-cycle assay TZM-bl, Env pseudovirus panel; settings: TZM-bl
# [33] = system: HIV-1 Env pseudovirus CRF02_AG, clone 33; test: Single-cycle assay TZM-bl, Env pseudovirus panel; settings: TZM-bl
# [34] = system: HIV-1 Env pseudovirus CRF02_AG, clone 251; test: Single-cycle assay TZM-bl, Env pseudovirus panel; settings: TZM-bl
# [35] = system: HIV-1 Env pseudovirus QB726.70M.ENV.C4; test: Single-cycle assay TZM-bl, Env pseudovirus panel; settings: TZM-bl
smiles,measurement,setting,value
"CNCC(NC(=O)c1ccc(-c2ccc3c(c2)OCO3)[nH]1)c1nc(CO)cs1 (centres unmarked) [NBD-14159, 5-(benzo[d][1,3]dioxol-5-yl)-N-(1-(4-(hydroxymethyl)thiazol-2-yl)-2-(methylamino)ethyl)-1H-pyrrole-2-carboxamide]",IC50,[1],4.4 ± 0.6 µM
same,CC50 at 7 days,Cytotoxicity [2],68.3 ± 5 µM
same,CC50 at 3 days,Cytotoxicity [3],> 100 µM
same,IC50,[4],5.8 ± 0.7 µM
same,IC50,[5],3.1 ± 0.1 µM
same,IC50,[6],41.3 ± 3.4 µM
same,IC50,[7],3.3 ± 0.2 µM
same,IC50,[8],2.6 ± 0.1 µM
same,IC50,[9],5.4 ± 0.5 µM
same,IC50,[10],3.4 ± 0.2 µM
same,IC50,[11],3.3 ± 0.2 µM
same,IC50,[12],4.2 ± 0.5 µM
same,IC50,[13],3.5 ± 0.2 µM
same,IC50,[14],4.8 ± 0.2 µM
same,IC50,[15],3.1 ± 0.4 µM
same,IC50,[16],2.1 ± 0.1 µM
same,IC50,[17],3.3 ± 0.2 µM
same,IC50,[18],1.7 ± 0.1 µM
same,IC50,[19],2.7 ± 0.2 µM
same,IC50,[20],4 ± 0.3 µM
same,IC50,[21],5 ± 0.1 µM
same,IC50,[22],3.7 ± 0.1 µM
same,IC50,[23],4.7 ± 0.5 µM
same,IC50,[24],5.8 ± 0.3 µM
same,IC50,[25],4.1 ± 0.1 µM
same,IC50,[26],4.2 ± 0.1 µM
same,IC50,[27],3.8 ± 0.4 µM
same,IC50,[28],3.3 ± 0.1 µM
same,IC50,[29],3.7 ± 0.3 µM
same,IC50,[30],4.2 ± 0.5 µM
same,IC50,[31],5.3 ± 0.2 µM
same,IC50,[32],3.1 ± 0.3 µM
same,IC50,[33],2.7 ± 0.2 µM
same,IC50,[34],3.5 ± 0.1 µM
same,IC50,[35],2.7 ± 0.2 µM
